Patent US7452556B2, “Compositions for the treatment of pilosebaceous gland inflammations comprising aluminum fluoride” (Medidermis Ltd., priority 2001, dated 2008)

Columns and labels:
[1] = cited from earlier work
[2] = tested on: Acne Vulgaris inflammatory lesion
Description: (§1) An Acne Vulgaris (FIGS. 1a, 1b and 1c) inflammatory lesion on the right cheek of a subject was treated by AIF trihydrate at 0.5% concentration dissolved in water only. The subject applied each 3-4 h the solution as a spray. Pictures were performed in a room with artificial constant light by a Sony Mavica FD95 digital camera at a resolution of 1600×1200 pixels.
(§2) Area of inflammation was measured by image analysis techniques as follows:
(§3) Pictures (FIGS. 1a, 1b and 1c) were saved as a BMP file and loaded into Scion Imaging software v. 4.02 (NIH, USA). All three pictures were concomitantly analyzed on the same frame. First, pictures in gray scale were smoothed, manually thresholded, turned into a binary picture and the results transformed to an outline filter. The area of each outlined papule was measured by the software (n=3) and data was further plotted and statistically analyzed by student's t-test in FIG. 2 (Sigmaplot, Jandel, Java).

[3] = tested on: Folliculitis inflammatory lesion
Description: as §1, with “A Folliculitis” for “An Acne Vulgaris”, “3a, 3b” for “1a, 1b”, “3c)” for “1c)”, “left posterior thigh […]” for “right cheek”
as §2
as §3, with “(FIGS. 3a, 3b” for “(FIGS. 1a, 1b”, “and 3c)” for “and 1c)”, “FIG. 4” for “FIG. 2”

[4] = 0.5% in water only, spray each 3-4 h, right cheek, subject, FIGS. 1a-1c
[5] = 0.5% in water only, spray each 3-4 h, left posterior thigh, subject, FIGS. 3a-3c

For `CC1=C(/C=C/C(C)=C/C=C/C(C)=C\C(=O)O)C(C)(C)CCC1` [isotretinoin], the “incidence of severe side effects” value ([1]; oral, Strauss J S et al, J Am Acad Dermatol, 2001) is listed as 35%, the “side effect: dryness” value ([1]; systemic retinoid) is listed as 100% and the “side effect: hair loss” value ([1]; systemic retinoid) is listed as 30%. The “side effect: liver function disorder” value ([1]; systemic retinoid) was 5%, the “side effect: musculo-skeletal pains” value ([1]; systemic retinoid) was 15% and the “side effect: photosensitivity” value ([1]; systemic retinoid) was 90%.
In the case of Aluminum fluoride [AIF trihydrate], the “final resolution of the papule, time” value [2, 4] is reported as 26 h, the “rapid fading of the papule, time from start of treatment” value [2, 4] is reported as 14 h and the “heals the inflamed papule within (area of lesion, image analysis)” value ([2]; FIG. 2, n=3 area measurements, p<0.01 at 14 h and at 26 h) is reported as “about 24 h”. For the same compound, the “final resolution of the papule, time” value [3, 5] was 18 h, the “rapid fading of the papule, time from start of treatment” value [3, 5] was 10 h and the “heals the inflamed papule within (area of lesion, image analysis)” value ([3]; FIG. 4, n=3 area measurements, p<0.01 at 10 h and p<0.001 at 18 h) was “about 18 h”.
